From patent publication US20240336606A1 (Suzhou Zelgen Biopharmaceuticals Co., Ltd., priority 2020, published 2024)

biological target: T1, binding of KRAS^G12C to SOS1 (Homo sapiens, UniProt Q07889); assay: Inhibition of the binding of KRAS^G12C to SOS1; conditions: Tag1-SOS1 / Tag2-KRAS^G12C, 2 h incubation at room temperature; read-out: IC50 (nM), inhibitory activity on the binding of KRAS^G12C to SOS1
T1 construct: Tag1 (unspecified)
T1 sequence (Q07889 1-1333): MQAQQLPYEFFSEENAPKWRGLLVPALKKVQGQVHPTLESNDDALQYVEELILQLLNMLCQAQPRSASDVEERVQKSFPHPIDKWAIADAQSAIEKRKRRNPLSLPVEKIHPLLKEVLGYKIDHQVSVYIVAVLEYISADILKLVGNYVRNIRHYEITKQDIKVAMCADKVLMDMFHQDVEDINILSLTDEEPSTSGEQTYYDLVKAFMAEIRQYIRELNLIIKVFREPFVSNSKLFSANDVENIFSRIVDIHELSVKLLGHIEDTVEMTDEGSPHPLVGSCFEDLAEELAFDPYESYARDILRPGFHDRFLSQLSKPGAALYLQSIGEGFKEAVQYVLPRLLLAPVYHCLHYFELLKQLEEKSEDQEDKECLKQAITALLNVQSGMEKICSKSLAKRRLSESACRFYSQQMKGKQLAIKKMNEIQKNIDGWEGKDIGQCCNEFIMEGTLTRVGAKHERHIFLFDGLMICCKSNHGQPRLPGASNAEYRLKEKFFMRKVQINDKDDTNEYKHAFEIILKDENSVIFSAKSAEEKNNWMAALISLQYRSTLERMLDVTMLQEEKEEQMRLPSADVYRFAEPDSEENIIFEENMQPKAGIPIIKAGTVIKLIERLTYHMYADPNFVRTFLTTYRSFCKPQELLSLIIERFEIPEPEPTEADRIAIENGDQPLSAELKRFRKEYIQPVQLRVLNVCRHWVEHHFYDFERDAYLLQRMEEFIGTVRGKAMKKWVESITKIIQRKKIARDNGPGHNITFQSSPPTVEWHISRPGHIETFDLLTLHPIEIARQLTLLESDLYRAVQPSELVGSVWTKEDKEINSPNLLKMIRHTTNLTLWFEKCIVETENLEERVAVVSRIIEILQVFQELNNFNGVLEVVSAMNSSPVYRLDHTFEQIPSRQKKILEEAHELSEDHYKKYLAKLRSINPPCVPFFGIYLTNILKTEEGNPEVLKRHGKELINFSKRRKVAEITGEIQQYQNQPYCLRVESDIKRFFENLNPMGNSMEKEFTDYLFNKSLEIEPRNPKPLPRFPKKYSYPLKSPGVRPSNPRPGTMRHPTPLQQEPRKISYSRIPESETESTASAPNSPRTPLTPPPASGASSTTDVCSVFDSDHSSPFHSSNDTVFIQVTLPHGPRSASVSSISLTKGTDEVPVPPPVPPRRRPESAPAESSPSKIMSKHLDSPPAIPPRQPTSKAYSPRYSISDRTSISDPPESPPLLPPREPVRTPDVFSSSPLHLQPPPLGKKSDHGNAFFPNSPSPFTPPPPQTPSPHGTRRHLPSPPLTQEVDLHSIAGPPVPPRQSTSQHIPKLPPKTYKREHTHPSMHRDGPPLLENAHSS
Experimental: • (1) Gradient dilution of the test compounds: 10 mM mother solution (dissolved in 100% DMSO) was added to a 384-well test plate, the final content of DMSO being 0.25%.
(2) 5 μL of Tag1-SOS1 solution was added to the test plate, and 5 μL of dilution buffer was added to the control group.
(3) 5 μL of Tag2-KRAS^G12C solution was added to the test plate.
(4) 10 μL of Anti-Tag1-Tb3+ and Anti-Tag2-XL665 detection solution were added to the test plate. The plate was centrifuged at 1000 rpm for 1 min and incubated at room temperature for 2 h.
(6) The IC50 values for the compounds were finally calculated using GraphPad Prism software, and a curve was fit and plotted.
The inhibitory activity of the compounds of the examples of the present invention on the binding of KRAS^G12C enzyme to SOS1 is shown in Table 1.

Structure (SMILES) | IC50 [nM]
COc1cc2nc(C)nc(N[C@H](C)c3cccc(C(F)(F)C(C)(C)O)c3F)c2cc1OCCN(C)CC1CCC1 [Example 9] | 3.4
COc1cc2nc(C)nc(N[C@H](C)c3cc(N)cc(C(F)(F)F)c3)c2cc1OCCN(C)S(C)(=O)=O [Example 13] | 2.5
COc1cc2nc(C)nc(N[C@H](C)c3cc(N)cc(C(F)(F)F)c3)c2cc1OC[C@@H]1CCCN1C(C)=O [Example 14] | 16
COc1cc2nc(C)nc(N[C@H](C)c3cc(N)cc(C(F)(F)F)c3)c2cc1OCC1(CN2CCOCC2)CC1 [Example 15, (R)—N-(1-(3-amino-5-(trifluoromethyl)phenyl)ethyl)-7-methoxy-2-methyl-6-((1-(morpholinylmethyl)cyclopropyl)methoxy)quinazolin-4-amine] | 6.9
COc1cc2nc(C)nc(N[C@H](C)c3cccc(C(F)(F)F)c3F)c2cc1OC[C@@H]1CCCN1C(=O)OC(C)(C)C [Example 16] | 1090
COc1cc2nc(C)nc(N[C@H](C)c3cccc(C(F)(F)F)c3F)c2cc1OC[C@@H]1CCCN1 [Example 17, N—((R)-1-(2-Fluoro-3-(trifluoromethyl)phenyl)ethyl)-7-methoxy-2-methyl-6-(((S)-pyrrolin-2-yl)methoxy)quinazolin-4-amine] | 70
COc1cc2nc(C)nc(N[C@H](C)c3cccc(C(F)(F)F)c3F)c2cc1OC[C@@H]1CCCN1C [Example 18, N—((R)-1-(2-fluoro-3-(trifluoromethyl)phenyl)ethyl)-7-methoxy-2-methyl-6-(((S)-1-methylpyrrolin-2-yl)methoxy)quinazolin-4-amine] | 36
COc1cc2nc(C)nc(N[C@H](C)c3cccc(C(F)(F)C(C)(C)O)c3F)c2cc1OCCN(C)CC1CC(F)(F)C1 [Example 19] | 9.4

Further molecules by falling IC50, results first:

IC50 [nM] | Structure (SMILES)
18 | COc1cc2nc(C)nc(N[C@H](C)c3cc(N)cc(C(F)(F)F)c3)c2cc1OCC1(C(C)OC)CC1 (single isomer, unassigned) [Example 65A]
13 | COc1cc2nc(C)nc(N[C@H](C)c3cc(N)cc(C(F)(F)F)c3)c2cc1OC[C@@H]1CCC(=O)N1C [Example 6, (S)-5-(((4-(((R)-1-(3-amino-5-(trifluoromethyl)phenyl)ethyl)amino)-7-methoxy-2-methylquinazolin-6-yl)oxy)methyl)-1-methylpyrrolin-2-one]
8.5 | COc1cc2nc(C)nc(N[C@H](C)c3cc(N)cc(C(F)(F)F)c3)c2cc1OC[C@@H]1CCCN1C [Example 2]
8.3 | COc1cc2nc(C)nc(N[C@H](C)c3cccc(C(F)(F)C(C)(C)O)c3F)c2cc1OCC1(CN(C)C)CC1 [Example 12]
7.3 | COc1cc2nc(C)nc(N[C@H](C)c3cc(N)cc(C(F)(F)F)c3)c2cc1OCC1(C(C)OC)CC1 (single isomer, unassigned) [Example 65B]
4.6 | COc1cc2nc(C)nc(N[C@H](C)c3cccc(C(F)(F)C(C)(C)O)c3F)c2cc1OC[C@@H]1CCCN1C [Example 1]
3.6 | COc1cc2nc(C)nc(N[C@H](C)c3cc(N)cc(C(F)(F)F)c3)c2cc1OCC1(CN(C)C)CC1 [Example 11, (R)—N-(1-(3-amino-5-(trifluoromethyl)phenyl)ethyl)-6-((1-((dimethylamino)methyl)cyclopropyl)methoxy)-7-methoxy-2-methylauinazolin-4-amine]
3.3 | COc1cc2nc(C)nc(N[C@H](C)c3cc(N)cc(C(F)(F)F)c3)c2cc1OCCOC1CC1 [Example 7, (R)—N-(1-(3-amino-5-(trifluoromethyl)phenyl)ethyl)-6-(2-cyclopropoxy)-7-methoxy-2-meth ylquinazolin-4-amine]
2.9 | COc1cc2nc(C)nc(N[C@H](C)c3cc(N)cc(C(F)(F)F)c3)c2cc1OCCN(C)CC1CCC1 [Example 10]
1.9 | COc1cc2nc(C)nc(N[C@H](C)c3cc(N)cc(C(F)(F)F)c3)c2cc1OCCN(C)C1CC1 [Example 8]
